Test results taken from patent US5688787A, “Substituted β-lactam compounds useful as hypochlesterolemic agents and processes for the preparation thereof” (priority 1996, dated 1997).
Where two headings read alike, the source gives them in different places.

Experiments:
Hyperlipidemic Hamster = test: In Vivo Assay of Hypolipidemic Agents Using the Hyperlipidemic Hamster; details: Mesocricetus auratus, po, 168 h, 7 days, percent change versus control, negative = lowering; for change in vivo at 50 mg/kg: 50 mg/kg once daily oral; for change in vivo at 25 mg/kg: 25 mg/kg once daily oral
Outline: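 Hamsters, six per group, were fed chow with 0.5% cholesterol for seven days and given compound once daily by oral gavage in corn oil; controls received corn oil alone. Plasma (EDTA) and liver lipids were measured at sacrifice. Values are percent change versus control, so negative means lowering.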

ACAT = biological target: T1, ACAT (Rattus norvegicus, UniProt Q7TQM4); test: ACAT Assay (in vitro); type: biochemical; details: for inhibition at 10 µM: Conc. 10 µM, negative = apparent stimulation, read-out: ACAT (in vitro) % Inhib.; for IC50: rat liver microsomes, read-out: ACAT (in vitro) IC50
T1 construct: Rat liver microsomes are used as the source of ACAT; from tissue; host or cells: rat liver microsomes
T1 sequence (Q7TQM4 1-524): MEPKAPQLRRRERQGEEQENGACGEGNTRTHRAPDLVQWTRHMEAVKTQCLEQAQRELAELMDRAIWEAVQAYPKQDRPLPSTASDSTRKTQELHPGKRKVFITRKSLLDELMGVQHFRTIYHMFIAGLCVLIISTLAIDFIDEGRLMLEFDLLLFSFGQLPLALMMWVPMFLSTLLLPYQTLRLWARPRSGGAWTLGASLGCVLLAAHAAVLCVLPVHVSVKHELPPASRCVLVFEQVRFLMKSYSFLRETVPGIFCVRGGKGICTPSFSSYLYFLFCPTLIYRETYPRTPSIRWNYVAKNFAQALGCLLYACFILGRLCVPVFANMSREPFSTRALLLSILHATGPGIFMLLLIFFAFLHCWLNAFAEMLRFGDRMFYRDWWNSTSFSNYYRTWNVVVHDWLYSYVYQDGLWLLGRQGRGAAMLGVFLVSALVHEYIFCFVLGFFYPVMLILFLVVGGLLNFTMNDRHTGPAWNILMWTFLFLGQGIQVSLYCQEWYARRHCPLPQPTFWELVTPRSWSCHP

[1] = read-out: % Reduction (in vivo) Cholest. Esters
[2] = read-out: % Reduction (in vivo) Serum Cholest.

| Compound | inhibition at 10 µM (ACAT) [%] | IC50 (ACAT) [µM] | change in vivo at 50 mg/kg (Hyperlipidemic Hamster; [1]) [%] | change in vivo at 50 mg/kg (Hyperlipidemic Hamster; [2]) [%] | change in vivo at 25 mg/kg (Hyperlipidemic Hamster; [1]) [%] | change in vivo at 25 mg/kg (Hyperlipidemic Hamster; [2]) [%] |
| --- | --- | --- | --- | --- | --- | --- |
| COc1ccc(N2C(=O)[C@@H](CCCc3ccccc3)[C@H]2c2ccc(CN3CCOCC3)cc2)cc1 (relative stereo) [Example 19A] | 64 | – | -34 | -20 | – | – |
| CCCCCCCCCC[C@]1(C)C(=O)N(c2ccc(OC)cc2)[C@H]1c1ccccc1 (relative stereo) [Example 3Y] | -33 | – | 0 | 0 | – | – |
| CC[C@@]1(CCCc2ccccc2)C(=O)N(c2ccc(OC)cc2)[C@H]1CCc1ccccc1 (relative stereo) [Example 6] | 59 | 5 | 0 | 14 | – | – |
| COc1ccc(N2C(=O)[C@H](CCCc3ccccc3)[C@H]2c2ccc(CN3CCOCC3)cc2)cc1 (relative stereo) [Example 19] | 24 | – | -51 | -20 | – | – |
| CC[C@]1(CCCc2ccccc2)C(=O)N(c2ccc(OC)cc2)[C@H]1c1ccc(OC)cc1 (relative stereo) [Example 3M] | 13 | – | 0 | 0 | – | – |
| CCCCCCCCCC[C@@]1(CC)C(=O)N(c2c(OC)cc(OC)cc2OC)[C@@H]1c1ccccc1 (relative stereo) [Example 3W] | 56 | – | 0 | 0 | – | – |
| COc1ccc(N2C(=O)[C@H](CCCc3ccccc3)[C@@H]2c2ccc(OCc3ccccc3)cc2)cc1 (relative stereo) [Example 1BN] | – | 7 | 0 | -16 | – | – |
| COc1ccc([C@@H]2N(c3ccc(OC)cc3)C(=O)[C@@]2(Cc2ccccc2)c2ccccc2)cc1 (relative stereo) [Example 7AH] | -5 | – | 16 | 16 | – | – |
| CC[C@@]1(c2ccccc2)C(=O)N(c2ccc(OC)cc2)[C@H]1c1ccccc1 (relative stereo) [Example 1Z] | -15 | – | -39 | -15 | – | – |
| COc1ccc([C@H]2[C@@H](CCOc3ccc(F)cc3)C(=O)N2c2ccc(OC)cc2)cc1 (relative stereo) [Example 1CG] | 8 | – | -61 | -30 | – | – |
| COc1ccc(N2C(=O)[C@@](C)(CCCc3ccccc3)[C@@H]2c2ccccc2)cc1 (relative stereo) [Example 3J] | 45 | – | -16 | 0 | – | – |
| CC[C@@]1(CCCCc2ccccc2)C(=O)N(c2ccc(OC)cc2)[C@H]1c1ccccc1 (relative stereo) [Example 3L] | 53 | – | – | – | 0 | 0 |
| CC[C@]1(CCc2ccccc2)C(=O)N(c2ccc(OC)cc2)[C@H]1c1ccccc1 (relative stereo) [Example 3H] | 66 | – | 31 | -10 | – | – |
| CC[C@]1(CCCc2ccccc2)C(=O)N(c2c(OC)cc(OC)cc2OC)[C@H]1c1ccccc1 (relative stereo) [Example 3F] | 82 | – | -31 | 0 | – | – |
| COc1ccc([C@H]2[C@@H](CCCCc3ccccc3)C(=O)N2c2ccc(OC)cc2)cc1 (relative stereo) [Example 1CI] | 26 | – | -23 | -8 | – | – |
| CCCCCCCCCC[C@]1(c2ccccc2)C(=O)N(c2ccc(OC)cc2)[C@H]1c1ccccc1 (relative stereo) [Example 3R] | -8 | – | 0 | 0 | – | – |
| COc1ccc(N2C(=O)C(c3ccccc3)(C3CCCC3)C2c2ccccc2)cc1 (centres unmarked) [Example 1AC] | 40 | – | -33 | -16 | – | – |
| COc1ccc([C@H]2[C@@H](CCCCCCc3ccccc3)C(=O)N2c2ccc(OC)cc2)cc1 (relative stereo) [Example 1CE] | 15 | – | -17 | -19 | – | – |
| COc1ccc(N2C(=O)[C@H](CCCc3ccccc3)[C@@H]2c2ccc(CN3CCN(C)CC3)cc2)cc1 (relative stereo) [Example 19B] | 53 | – | -31 | -26 | – | – |
| COc1ccc([C@@H]2[C@@H](CCOc3ccccc3)C(=O)N2c2ccc(OC)cc2)cc1 (relative stereo) [Example 5X] | 38 | – | -39 | 0 | – | – |
| CCCCCCCCCCC1C(=O)N(c2c(OC)cc(OC)cc2OC)C1c1ccccc1 (centres unmarked) [Example 1U] | 58 | 19 | 0 | 0 | – | – |

Further lines, with some results ahead:

| inhibition at 10 µM (ACAT) [%] | IC50 (ACAT) [µM] | Compound | change in vivo at 50 mg/kg (Hyperlipidemic Hamster; [1]) [%] | change in vivo at 50 mg/kg (Hyperlipidemic Hamster; [2]) [%] | change in vivo at 25 mg/kg (Hyperlipidemic Hamster; [1]) [%] | change in vivo at 25 mg/kg (Hyperlipidemic Hamster; [2]) [%] |
| --- | --- | --- | --- | --- | --- | --- |
| 38 | – | COc1ccc(N2C(=O)[C@H](CCCc3ccccc3)[C@@H]2c2ccc(C)cc2)cc1 (relative stereo) [Example 1BM] | -21 | 0 | – | – |
| 57 | – | COc1ccc(N2C(=O)[C@H](CCCc3ccccc3)[C@@H]2c2ccc([N+](=O)[O-])cc2)cc1 (relative stereo) [Example 1H] | -51 | -21 | – | – |
| -2 | – | COc1ccc(N2C(=O)[C@H](CCCc3ccccc3)[C@@H]2c2ccco2)cc1 (relative stereo) [Example 1BC] | 0 | 0 | – | – |
| 44 | – | COc1ccc(N2C(=O)[C@H](CCCc3ccccc3)[C@@H]2c2ccc(SC)cc2)cc1 (relative stereo) [Example 1AU] | -21 | 0 | – | – |
| 56 | – | COc1ccc(N2C(=O)[C@H](CCCc3ccccc3)[C@@H]2c2ccsc2)cc1 (relative stereo) [Example 1BJ] | 0 | 0 | – | – |
| 17 | – | COc1ccc(N2C(=O)[C@H](CCCc3ccccc3)[C@H]2c2ccco2)cc1 (relative stereo) [Example 1BD] | -25 | 0 | – | – |
| -36 | – | COc1ccc(N2C(=O)[C@H](CCCc3ccccc3)[C@H]2c2ccc3c(c2)OCO3)cc1 (relative stereo) [Example 5Q] | -19 | 0 | – | – |
| 22 | – | COc1ccc(N2C(=O)[C@@H](CCCc3ccccc3)[C@@H]2c2ccccc2)cc1 (relative stereo) [Example 1C] | -15 | -6 | – | – |
| 63 | – | COc1ccc(N2C(=O)[C@H](CCCc3ccccc3)[C@H]2c2ccc(N)cc2)cc1 (relative stereo) [Example 8C] | 0 | 0 | – | – |
| 38 | – | COc1ccc(N2C(=O)[C@@H](CCCc3ccccc3)[C@H]2c2ccc(S(C)(=O)=O)cc2)cc1 (relative stereo) [Example 17A] | -25 | -11 | – | – |
| 25 | – | COc1ccc(N2C(=O)[C@@H](CCCc3ccccc3)[C@H]2c2ccc([S+](C)[O-])cc2)cc1 (relative stereo) [Example 17] | -52 | -17 | – | – |
| 55 | – | COc1ccc(N2C(=O)[C@H](CCCc3ccccc3)[C@H]2c2ccc(C=O)cc2)cc1 (relative stereo) [Example 16A] | -53 | -30 | – | – |
| 3 | – | COc1ccc(N2C(=O)[C@H](CCCc3ccccc3)[C@H]2c2ccc(C(F)(F)F)cc2)cc1 (relative stereo) [Example 1BG] | 0 | 12 | – | – |
| 59 | – | COc1ccc(N2C(=O)[C@H](CCCc3ccccc3)[C@@H]2c2cccs2)cc1 (relative stereo) [Example 1BI] | -45 | -17 | – | – |
| 35 | – | COc1ccc(N2C(=O)[C@@H](CCCc3ccccc3)[C@@H]2c2cccs2)cc1 (relative stereo) [Example 1BQ] | -17 | 0 | – | – |
| 30 | – | COc1ccc(N2C(=O)[C@H](CCCc3ccccc3)[C@@H]2c2ccoc2)cc1 (relative stereo) [Example 1BE] | -21 | -10 | – | – |
